Assays:
[1] = test system: purified erythroid cells isolated from the spleens of normal and thalassemic mice; assay: Primary splenic erythroid cell cultures with CFSE staining (cell proliferation); type: cell-based, mouse; conditions: for CFSE FACS profile versus untreated cells: erythroid cells from wt mice, FIG. 2A legend, n=4 per genotype; for effect on cell proliferation of erythroid cultures (CFSE): erythroid cultures from thalassemic mice, AG490 100 uM, FIG. 2A; for total cell number as % of the initial cell numbers: 48 h in culture with Epo, with colcemid, n=4
Experimental: Spleens from […] were harvested and mechanically dissociated into single cell suspensions. Murine mononuclear cells were then isolated by centrifugation using Lympholyte-M density gradients (Cedarlane Laboratories Ltd, Westbury, N.Y.) following the manufacturer's instructions. Cells were incubated on ice for 15 minutes with a cocktail containing 10 μg each of non-erythroid FITCconjugated antibodies (GR-1, MAC1, CD4, CD8, CD11b, and CD49) (BD PharMingen). After washing, the cells were incubated for 15 minutes at 4° C. with anti-FITC microbeads (Miltenyi Biotech, Auburn, Calif.). The cell suspension was placed on a magnetic column and the eluted erythroid cells were kept for RNA extraction, protein analysis, in vitro culture with carboxy-fluorescein diacetate succinimidyl ester (CFSE; MolecularProbes, Eugene, Oreg.) staining or flow cytometric analysis. CFSE was added to the cells to give a final concentration of 1.25 uM. After 10 minutes at 37° C., further dye uptake was prevented by addition of 5 volumes of cold medium and incubated in ice for 5 minutes. The cells were then washed three times and seeded at 1×10^7 cells/ml in IMDM with 30% FBS (Hyclone, South Logan, Utah 84321), 1% deionized BSA, 100 IU/ml of penicillin, 100 ug/mL of streptomycin (Mediatech, Manassas, Va.), […] beta-thioglycerol (mTG; Sigma-Aldrich), and […] rHuEpo (10 U/ml; Amgen Mfg. Ltd. Thousand Oaks, Calif.). […] In order to visualize cell division, the cultured erythroid cells were stained with CFSE. Once the dye is inside the cell, it binds to cytoskeletal proteins and is divided equally between daughter cells. Thus, it is possible to determine if cells are dividing by monitoring the reduction of CFSE fluorescence (FIG. 2A).

[2] = test system: normal and thalassemic mice; assay: In vivo administration of Jak2 inhibitor to normal and thalassemic mice; set-up: species or system mouse
Excerpt: Mouse models that mimic beta-thalassemia intermedia (th3/+) and major (th3/th3) were used. (Rivella, S. et al, A novel murine model of Cooley anemia and its rescue by lentiviral mediated human beta globin gene transfer. Blood (2003) 101: 2932-2939, hereby incorporated by reference.) In th3/+ mice both the betaminor and betamajor gens have been deleted from one chromosome. Mice completely lacking adult beta-globin (th3/th3) die late in gestation. To circumvent this problem, bone marrow transplantation is conducted wherein hematopoietic fetal liver cells (HFLCs) were harvested from th3/th3 embryos at embryonic day 14.5 (E14.5) and injected into lethally irradiated syngeneic wild-type (wt) adult recipients.
Compound A, a Jak2 inhibitor, was administered to cohorts of normal and thalassemic mice of different ages. […] These observations indicate that the main role of pJak2 is to propel the erythropoietic drive.

SMILES | CFSE FACS profile versus untreated cells [1] | effect on cell proliferation of erythroid cultures (CFSE) [1] | total cell number as % of the initial cell numbers ([1]; th3/+ erythroid cells) | total cell number as % of the initial cell numbers ([1]; th3/th3 erythroid cells) | total cell number as % of the initial cell numbers ([1]; wt erythroid cells) | spleen size ([2]; 6- and 12-week old thalassemic mice, 10 and 18 days of treatment) | Hb levels ([2]; thalassemic mice, 10 and 18 days of treatment) | erythropoiesis and size of the spleen ([2]; young normal animals)
N#C/C(=C/c1ccc(O)c(O)c1)C(=O)NCc1ccccc1 [AG490] | little difference from untreated cells | blocking cell proliferation |  |  |  |  |  | 
CN[C@H]1CCc2cc(OC)c(OC)c(OC)c2-c2ccc(OC)c(=O)cc21 [colcemid] | little difference from untreated cells |  | 88±18% | 72±25% | 46±9% |  |  | 
Cc1cnc(Nc2ccc(N3CCN(C)CC3)cc2)nc1Nc1cccc(S(=O)(=O)NC(C)(C)C)c1 [compound A] |  | blocking cell proliferation |  |  |  | dramatically reduced | decreasing Hb levels | affected both erythropoiesis and the size of the spleen
